Read-outs that look alike come from different tables or passages of the source.
What was measured:
tankyrase-2 = molecular target: T1, tankyrase-2 (Homo sapiens, UniProt Q9H2K2); assay: Tankyrase-2 enzyme inhibition test (Tankyrase-2 Chemiluminescent Assay Kit); format: biochemical; conditions: autoribosylation of GST-tankyrase-2 fusion protein, chemiluminescence
T1 construct: purchased BPS Bioscience, Inc. 80566
T1 sequence (Q9H2K2 1-1166): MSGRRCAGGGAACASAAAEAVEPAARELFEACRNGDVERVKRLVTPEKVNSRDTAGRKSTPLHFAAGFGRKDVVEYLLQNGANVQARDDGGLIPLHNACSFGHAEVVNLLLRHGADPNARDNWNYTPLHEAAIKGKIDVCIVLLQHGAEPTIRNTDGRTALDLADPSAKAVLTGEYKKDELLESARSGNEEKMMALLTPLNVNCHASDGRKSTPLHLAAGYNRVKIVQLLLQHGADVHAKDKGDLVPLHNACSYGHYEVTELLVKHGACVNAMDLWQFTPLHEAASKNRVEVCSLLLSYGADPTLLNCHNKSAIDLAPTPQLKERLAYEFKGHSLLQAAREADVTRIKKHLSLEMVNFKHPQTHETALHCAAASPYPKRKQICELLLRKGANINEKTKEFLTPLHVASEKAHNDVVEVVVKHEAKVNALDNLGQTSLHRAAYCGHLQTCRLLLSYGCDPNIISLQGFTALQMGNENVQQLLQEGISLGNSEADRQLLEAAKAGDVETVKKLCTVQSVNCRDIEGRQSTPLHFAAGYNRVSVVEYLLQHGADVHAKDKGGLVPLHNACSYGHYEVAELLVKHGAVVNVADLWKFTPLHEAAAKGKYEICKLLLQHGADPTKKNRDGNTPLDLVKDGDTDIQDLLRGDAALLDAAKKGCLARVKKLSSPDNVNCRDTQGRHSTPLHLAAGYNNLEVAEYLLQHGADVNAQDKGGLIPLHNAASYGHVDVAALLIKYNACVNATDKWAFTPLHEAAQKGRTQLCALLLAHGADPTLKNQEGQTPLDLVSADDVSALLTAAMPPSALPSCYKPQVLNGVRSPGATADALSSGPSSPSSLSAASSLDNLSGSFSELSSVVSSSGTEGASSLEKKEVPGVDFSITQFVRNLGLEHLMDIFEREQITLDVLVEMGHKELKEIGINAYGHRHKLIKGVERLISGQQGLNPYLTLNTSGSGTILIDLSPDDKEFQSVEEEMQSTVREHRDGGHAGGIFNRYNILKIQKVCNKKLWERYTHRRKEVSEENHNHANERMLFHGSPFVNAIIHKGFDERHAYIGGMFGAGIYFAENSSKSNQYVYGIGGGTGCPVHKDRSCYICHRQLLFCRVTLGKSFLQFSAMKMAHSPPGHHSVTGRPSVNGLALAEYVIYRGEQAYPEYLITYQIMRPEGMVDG
Protocol: Test Example 2: Tankyrase-2 Enzyme Inhibition Test
The enzyme activity of tankyrase-2 was evaluated using Tankyrase-2 Chemiluminescent Assay Kit (BPS Bioscience, Inc., Catalog No. 80566). The Tankyrase-2 Chemiluminescent Assay Kit is a kit for evaluating the enzyme activity of tankyrase-2 using autoribosylation of glutathione-S-transferase (GST)-tankyrase-2 fusion protein as an index. All the experimental materials except for PBS (PBST) buffer containing phosphate-buffered saline (PBS) and 0.05% Tween 20 are all included in the kit. The GST-tankyrase-2 enzyme diluted with 50 μL of 1× tankyrase buffer was added to the wells of a 96-well plate coated with glutathione. After the plate was left to stand overnight at 4° C., the plate was washed 3 times with the PBST buffer. 150 μL of blocking buffer was added thereto, and the plate was left to stand at room temperature for 30 minutes to block the wells. The plate was washed 3 times with the PBST buffer. Before the ribosylation reaction, an assay mixture containing a biotinylated substrate and a test compound diluted with 1× tankyrase buffer were mixed, whereby a reaction mixture was prepared. In order to start the ribosylation reaction, 50 μL of the reaction mixture was added to the wells. In a blank well, 1× tankyrase buffer was added in place of the reaction mixture containing a biotinylated substrate. The plate was left to stand at 30° C. for 1 hour. After the reaction, the plate was washed 3 times with the PBST buffer. Streptavidin-horseradish peroxidase (HRP) was diluted to 50-fold with the blocking buffer. The diluted streptavidin-HRP was added to the wells, and the plate was left to stand at room temperature for 30 minutes. The plate was washed 3 times with the PBST buffer. Immediately before use, 50 μL of the HRP chemiluminescent substrate A and 50 μL of the HRP chemiluminescent substrate B were mixed and 100 μL of the resulting mixture was added to the wells. The chemiluminescence was measured using a chemiluminescence measuring apparatus. The inhibition ratio was obtained according to the following formula 2. [Math. 2] Inhibition ratio (%)=100−{(chemiluminescence intensity when test compound was added)−(chemiluminescence intensity of blank)}/{(chemiluminescence intensity of control)−(chemiluminescence intensity of blank)}×100 Formula 2

[1] = system: T-cell factor (TCF)-luciferase reporter using Wnt pathway as index; assay: Inhibitory activity against TCF-luciferase reporter using Wnt pathway as index (DLD-1/TCF-Luc cells); format: cell-based, human; conditions: for inhibition at 1 µM: Homo sapiens, read-out: Inhibition ratio (%) at 1 μmol/L
Procedure, shortened: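 Human colorectal DLD-1 cells stably carrying a TCF-responsive luciferase reporter (pGL4.27) were exposed to test compound for 18 h at 37 °C. Luciferase luminescence read; % inhibition calculated relative to control and blank wells, reported at 1 μmol/L.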

[2] = 1 μmol/L, DLD-1/TCF-Luc cells, luciferase activity after 18 hours

SMILES	Inhibition ratio (%) at 1 μmol/L (tankyrase-2) [%]	inhibition at 1 µM ([1]; DLD-1, 18 h) [%]	Inhibition ratio (%) at 1 μmol/L [1, 2] [%]	inhibition at 1 µM [1, 2] [%]
N#Cc1cc(N2C(=O)N(CC3CCN(c4nccc5nc[nH]c(=O)c45)CC3)Cc3ccccc32)ccn1 [Compound 34, 4-(2-Oxo-3-{[1-(4-oxo-3,4-dihydropyrido[4,3-d]pyrimidin-5-yl)piperidin-4-yl]methyl}-3,4-dihydroquinazolin-1(2H)-yl)picolinonitrile]	87	78	–	–
N#Cc1cc(N2C(=O)N(CC3CCN(c4ncnc5c4NC(=O)CO5)CC3)Cc3ccccc32)ccn1 [Compound 35, 4-(2-Oxo-3-{[1-(6-oxo-6,7-dihydro-5H-pyrimido[4,5-b][1,4]oxazin-4-yl)piperidin-4-yl]methyl}-3,4-dihydroquinazolin-1(2H)-yl)picolinonitrile]	88	79	–	–
N#Cc1cc(N2C(=O)N(CC3CCN(c4ncnc5[nH]c(=O)[nH]c45)CC3)Cc3ccccc32)ccn1 [Compound 36, 4-(2-Oxo-1-{[1-(8-oxo-8,9-dihydro-7H-purin-6-yl)piperidin-4-yl]methyl}-3,4-dihydroquinazolin-1(2H)-yl)picolinonitrile]	88	–	79	–
N#Cc1cc(N2C(=O)N(CC3CCN(c4ncnc5cc(N6CCOCC6)ccc45)CC3)Cc3ccccc32)ccn1 [Compound 37, 4-(3-{[1-(7-Morpholinoquinazolin-4-yl)piperidin-4-yl]methyl}-2-oxo-3,4-dihydroquinazolin-1(2H)-yl)picolinonitrile]	87	82	–	–
N#Cc1cc(N2C(=O)N(CC3CCN(c4cccc5n[nH]c(=O)n45)CC3)Cc3ccccc32)ccn1 [Compound 38, 4-(2-Oxo-3-{[1-(3-oxo-2,3-dihydro-[1,2,4]triazolo[4,3-a]pyridin-5-yl)piperidin-4-yl]methyl}-3,4-dihydroquinazolin-1(2H)-yl)picolinonitrile]	94	89	–	–
N#Cc1cc(N2C(=O)N(CC3CCN(c4c(C(N)=O)ccnc4F)CC3)Cc3ccccc32)ccn1 [Compound 40, 3-(4-{[1-(2-Cyanopyridin-4-yl)-2-oxo-1,2-dihydroquinazolin-3(4H)-yl]methyl}piperidin-1-yl)-2-fluoroisonicotinamide]	93	78	–	–
N#Cc1cc(N2C(=O)N(CC3CCN(c4ncnc5cc(N)cnc45)CC3)Cc3ccccc32)ccn1 [Compound 41, 4-(3-{[1-(7-Aminopyrido[3,2-d]pyrimidin-4-yl)piperidin-4-yl]methyl}-2-oxo-3,4-dihydroquinazolin-1(2H)-yl)picolinonitrile]	92	81	–	–
CC(=O)N1CCc2ncnc(N3CCC(CN4Cc5ccccc5N(c5ccc(F)c(C#N)c5)C4=O)CC3)c2C1 [Compound 44, 5-(3-{[1-(6-Acetyl-5,6,7,8-tetrahydropyrido[4,3-d]pyrimidin-4-yl)piperidin-4-yl]methyl}-2-oxo-3,4-dihydroquinazolin-1(2H)-yl)-2-fluorobenzonitrile]	93	82	–	–
N#Cc1cc(N2C(=O)N(CC3CCN(c4nccc5nc[nH]c(=O)c45)CC3)Cc3cccnc32)ccc1F [Compound 47, 2-Fluoro-5-(2-oxo-3-{[1-(4-oxo-3,4-dihydropyrido[4,3-d]pyrimidin-5-yl)piperidin-4-yl]methyl}-3,4-dihydropyrido[2,3-d]pyrimidin-1(2H)-yl)benzonitrile]	80	–	–	82
COc1ccc2c(c1)CN(CC1CCN(c3nccc4nc[nH]c(=O)c34)CC1)C(=O)N2c1ccnc(C(N)=O)c1 [Compound 48, 4-(6-Methoxy-2-oxo-3-{[1-(4-oxo-3,4-dihydropyrido[4,3-d]pyrimidin-5-yl)piperidin-4-yl]methyl}-3,4-dihydroquinazolin-1(2H)-yl)picolinamide]	93	–	–	84
CC(=O)Nc1ccc2ncnc(N3CCC(CN4Cc5cccnc5N(c5ccnc(C#N)c5)C4=O)CC3)c2c1 [Compound 50, N-[4-(4-{[1-(2-Cyanopyridin-4-yl)-2-oxo-1,2-dihydropyrido[2,3-d]pyrimidin-3(4H)-yl]methyl}piperidin-1-yl)quinazolin-6-yl]acetamide]	82	–	–	87

Source: US9771351B2, “Wnt signaling inhibitor” (KYOWA HAKKO KIRIN CO., LTD., priority 2013, dated 2017)
